Results published in publication PMC3827994, “Novel preclinical models of topical PrEP pharmacodynamics provide rationale for combination of drugs with complementary properties” (Retrovirology, 2013).
Counter-ions that a name gives are not always drawn.

Legend:
HIV-1Ba-L [1] = test: Co-culture model: drug-exposed human ectocervical explants washed, minced, co-cultured with JT-CCR5 cells, HIV-1Ba-L challenge; format: cell-based
Description: (§1) Cervical tissue was collected from pre-menopausal women undergoing therapeutic hysterectomies at the Albert Einstein–Montefiore Weiler Hospital (Bronx, NY, USA) under an IRB exempt protocol. Ectocervical tissue was cut into explants of approximately 3×3×3 mm prior to 24 h exposure to panel of unformulated drugs in 24-well plates. Extracellular free drug was removed by immersing explants in phosphate buffered saline (PBS) containing Ca^2+ before mincing explants into fragments smaller than 1 mm, which were resuspended in 200 μL complete medium and co-cultured with JT-CCR5 cells (1×10^5 cells/well) in triplicate wells of round-bottomed 96-well plates. Co-cultures were incubated at 37°C for 72 h to allow released drug to be transferred from the tissue to T cells prior to challenge with HIV-1Ba-L (approximately 10^3 TCID50). The inoculum was removed and co-cultured tissue and cells washed thrice with medium. HIV replication was assessed by measuring p24 levels by ELISA (Figure 2a).

HIV-1Ba-L [2] = test: Intracellular drug retention: JT-CCR5 cells exposed to drug 24 h, washed with medium or 10% seminal plasma, then HIV-1Ba-L challenge; format: cell-based; conditions: for antiviral activity after washing cells with medium or SP prior to challenge: JT-CCR5, 24 h drug exposure, TDF at >= 0.1 μM; for protection of washed cells at the highest concentrations tested: 10 and 100 μM, cells washed with medium or SP
Description: (§2) JT-CCR5 T cells in 24-well plates (1×10^6 cells/well) were exposed to varying concentrations of drugs diluted in complete medium for 24 h. The cells were then washed with 10 mL of medium, medium containing 10% human seminal plasma (SP), or not washed and then washed cells were resuspended in complete medium prior to transfer to round-bottomed 96-well plates and exposed to 10^3 TCID50 (50% tissue culture infective dose) HIV-1Ba-L for 2 h. Plates were centrifuged at 500 g for 5 min and supernatants were removed prior to each of 3 washing steps with 200 μL of medium. Cells were subsequently cultured in 200 μL complete medium and HIV replication was assessed 6 d post-infection by measuring p24 antigen by ELISA [34].

HIV-1Ba-L [3] = test: JT-CCR5 cells challenged with HIV-1Ba-L in the presence of drug (p24 ELISA); format: cell-based
Description: as §2

TZM-bl cells = test: In vitro activity of IQP-0528 in TZM-bl cells; format: cell-based; conditions: not shown
[4] = pig, in vivo
Description: A 14-day IQP-0528 IVR biodistribution study using pigtail macaque monkeys was performed following protocols approved by the CDC Institutional Animal Care and Use Committee according to the Guide for the Care and Use of Laboratory Animals as previously described [36]. Briefly, animals were anesthetized with ketamine (3-10 mg/kg) prior to all collection procedures. A total of six macaques were used with two animals receiving placebo IVR and four animals receiving IQP-0528 (10% w/w) IVR. A pediatric speculum and forceps were used to insert IVRs in the posterior vagina proximal to the ectocervix on day 0 and left in place for 14 days. Tissue samples were collected with biopsy forceps (Miltex Townsend # 30–1445) near the vaginal introitus (distal to the ring) and the ectocervix (proximal to the ring) and shipped at 4°C to the Herold laboratory overnight. CVL samples were obtained by washing the vaginal vault with 5 mL normal saline; CVL samples were divided into aliquots, shipped and stored at -80°C.
IQP-0528 in biological samples was extracted and analyzed using LC-MS/MS at the Center for Human Toxicology (Utah). The lower limit of quantification (LLOQ) for this assay was 1 ng/mL of matrix. To convert weight/weight concentrations of IQP-0528 (nanograms IQP-0528 per milligram of vaginal fluid or tissue) to molarity (μM), vaginal fluid and tissue densities of 1.0 g/mL were assumed.

HIV-1Ba-L [5] = test: NHP cervical biopsies co-cultured with PHA-activated human PBMC, HIV-1Ba-L challenge (p24 ELISA); format: cell-based
Description: as §1
Proximal and distal biopsies were collected and placed in 200 μL of complete medium and shipped to the Herold laboratory at 4°C. Biopsies were minced without washing and co-cultured with activated human PBMC in the presence of culture medium used during transport. Challenge and assessment of HIV replication were performed as described for human cervical explant tissue (Figure 2a).

HIV-1Ba-L [6] = test: Antiviral activity of macaque CVL in TZM-bl cells challenged with HIV-1Ba-L (luciferase); format: cell-based; conditions: CVL diluted 1:10 and 1:100, Days 7 and 14 post IVR insertion
Description: TZM-bl cells were plated at 3x10^4/well and allowed to adhere overnight before exposure to 10^3 TCID50 HIV-1Ba-L in the presence of CVL diluted 1:10 and 1:100 in complete DMEM in triplicate wells. Virus and drugs were left in culture for 48 h at 37°C and then removed by washing once with 200 μl PBS. Cells were lysed in 100 μl luciferase cell culture lysis reagent (Promega) and stored at -80°C until assessed for luciferase activity using luciferase assay buffer (Promega). Alternatively, TZM-bl cells were plated at 5x10^3/well in polyester transwell™ inserts with 1.0 μm pore size (Corning) and exposed basolaterally to CVL diluted 1:20 in complete DMEM overnight before apical challenge with the CCR5-tropic subtype C HIV isolate 97USNG30 (0, 10 and 100 TCID50). Wells with luciferase activity above background average + 2 standard deviations (cells exposed to CVL but no virus) were considered positive. To avoid contamination, frozen CVL was Gamma-irradiated on dry ice (1KGy) prior to use.

HIV-1Ba-L [7] = test: Parallel antiviral experiments with MVC in human PBMCs; format: cell-based; conditions: PHA-activated PBMCs; data not shown
HIV = system: HIV; set-up: method as in PMID 16251317; conditions: drug present throughout the experiment ref 25; cited from earlier work
[8] = Human immunodeficiency virus 1; drug concentration during 24 h explant exposure; means ± SEM; read-out: Co-culture JT-CCR5 & explant tissue IC50
[9] = Human immunodeficiency virus 1; drug concentration during 24 h explant exposure; means ± SEM; read-out: Co-culture JT-CCR5 & explant tissue IC90
[10] = explant treated ex vivo, washed, co-cultured with JT-CCR5
[11] = Human immunodeficiency virus 1, 144 h; challenge in the presence of drug; means ± SEM; read-out: JT-CCR5 Infection IC50
[12] = Human immunodeficiency virus 1, 144 h; challenge in the presence of drug; means ± SEM; read-out: JT-CCR5 Infection IC90
[13] = macaques with 10% w/w IQP-0528 IVR, co-culture with human PBMC

For CC(C)OC(=O)OCOP(=O)(CO[C@H](C)Cn1cnc2c(N)ncnc21)OCOC(=O)OC(C)C [TDF, Tenofovir disoproxil fumarate], which IC50 (HIV-1Ba-L [1]; [8]) is on record?
Its IC50 is > 10000 nM.

What about the IC90 (HIV-1Ba-L [1]; [9]) of the same compound?
The IC90 was > 10000 nM.

What about the “protection of co-cultured T cells by pretreated explant tissue” value (“protection of co-cultured T cells” below) (HIV-1Ba-L [1]; [10]) of the same compound?
Its value is “not protected from viral infection”.

What about the “antiviral activity after washing cells with medium or SP prior to challenge” value (HIV-1Ba-L [2]) of the same compound?
The value was “retained its antiviral activity”.

And the IC50 (HIV-1Ba-L [3]; [11])?
Its IC50 is 40 ± 10 nM.

What about the IC90 (HIV-1Ba-L [3]; [12]) of the same compound?
The IC90 was 130 ± 20 nM.

With Cc1cc(C)cc(C(=O)c2c(C(C)C)c(=O)[nH]c(=O)n2CC2CC2)c1 [IQP-0528] as the compound, how does the “in vitro IC90 in TZM-bl cells” value (TZM-bl cells) read?
The value was 2.7 ng/mL.

And the “IQP-0528 concentration in CVL, D7, Mean ± SEM” value [4]?
Its value is 1360 ± 249 µg/mL.

And the “IQP-0528 concentration in CVL, D14, Mean ± SEM” value [4]?
The value was 940 ± 250 µg/mL.

And the “IQP-0528 concentration in cervical tissue, Distal D7, Mean ± SEM” value [4]?
Its value is 0.85 ± 0.23 ng/mg of tissue.

What about the “IQP-0528 concentration in cervical tissue, Distal D14, Mean ± SEM” value [4] of the same compound?
Its value is 14.65 ± 6.35 ng/mg of tissue.

And the “IQP-0528 concentration in cervical tissue, Proximal D7, Mean ± SEM” value [4]?
Its value is 3.36 ± 1.36 ng/mg of tissue.

And the “IQP-0528 concentration in cervical tissue, Proximal D14, Mean ± SEM” value [4]?
The value was 28.08 ± 5.39 ng/mg of tissue.

And the “viral inhibition, distal biopsies, day 7” value (HIV-1Ba-L [5]; [13])?
Its value is 42.3%.

And the “viral inhibition, distal biopsies, day 14” value (HIV-1Ba-L [5]; [13])?
The value was 59.2%.

And the “viral inhibition, proximal biopsies, day 7” value (HIV-1Ba-L [5]; [13])?
The value was 53.0%.

And the “viral inhibition, proximal biopsies, day 14” value (HIV-1Ba-L [5]; [13])?
Its value is 71.7%.

What about the “viral inhibition, biopsies of ring-treated macaques (range)” value (HIV-1Ba-L [5]; proximal and distal biopsies, days 7 and 14) of the same compound?
Its value is 42-72%.

And the IC50 (HIV-1Ba-L [1]; drug concentration during 24 h explant exposure; means ± SEM; read-out: Co-culture JT-CCR5 & explant tissue IC50)?
The IC50 was 2900 ± 700 nM.

What about the IC90 (HIV-1Ba-L [1]; drug concentration during 24 h explant exposure; means ± SEM; read-out: Co-culture JT-CCR5 & explant tissue IC90) of the same compound?
The IC90 was 10100 ± 700 nM.

And the “protection of co-cultured T cells” value (HIV-1Ba-L [1]; [10])?
Its value is “significant protection”.

And the “protection in co-culture, fresh tissue vs tissue stored at -80°C” value (HIV-1Ba-L [1]; tissue fresh or frozen 24 h or 7 days after drug treatment)?
Its value is “protective under all of these conditions”.

And the “protection of TZM-bl cells challenged in the presence of CVL” value (HIV-1Ba-L [6])?
Its value is “significantly protected from infection”.

And the “protection of washed cells at the highest concentrations tested” value (HIV-1Ba-L [2])?
Its value is “neither IQP-0528 or MVC completely protected the cells from infection”.

And the IC50 (HIV-1Ba-L [3]; challenge in the presence of drug; means ± SEM; read-out: JT-CCR5 Infection IC50)?
The IC50 was 190 ± 70 nM.

What about the IC90 (HIV-1Ba-L [3]; challenge in the presence of drug; means ± SEM; read-out: JT-CCR5 Infection IC90) of the same compound?
Its IC90 is 430 ± 160 nM.

With Cc1cc(C)c(Nc2ccnc(Nc3ccc(C#N)cc3)n2)c(C)c1 [DPV, Dapivirine] as the compound, how does the IC50 (HIV-1Ba-L [1]; [8]) read?
Its IC50 is 400 ± 200 nM.

And the IC90 (HIV-1Ba-L [1]; [9])?
The IC90 was 1100 ± 300 nM.

And the “protection of co-cultured T cells” value (HIV-1Ba-L [1]; [10])?
Its value is “significant protection”.

What about the “HIV inhibition” value (HIV-1Ba-L [2]; 1 μM, cells washed with SP prior to HIV challenge) of the same compound?
The value was “failed to inhibit HIV infection”.

And the inhibition at 1 µM (HIV-1Ba-L [2]; Human immunodeficiency virus 1, 1 μM, cells washed with medium alone, mean ± SEM, read-out: protection (HIV inhibition))?
Its inhibition at 1 µM is 73.9 ± 13.8%.

What about the IC50 (HIV-1Ba-L [3]; [11]) of the same compound?
The IC50 was 10 ± 10 nM.

And the IC90 (HIV-1Ba-L [3]; [12])?
Its IC90 is 30 ± 20 nM.

With Maraviroc [MVC] as the compound, how does the “protection of co-cultured T cells” value (HIV-1Ba-L [1]; [10]) read?
Its value is “failed to protect co-cultured T cells”.

What about the IC50 (HIV-1Ba-L [1]; read-out: Co-culture JT-CCR5 & explant tissue IC50; drug concentration during 24 h explant exposure; means ± SEM) of the same compound?
Its IC50 is > 100000 nM.

And the IC90 (HIV-1Ba-L [1]; read-out: Co-culture JT-CCR5 & explant tissue IC90; drug concentration during 24 h explant exposure; means ± SEM)?
Its IC90 is > 100000 nM.

What about the “antiviral activity in human PBMCs compared to JT-CCR5 cells” value (HIV-1Ba-L [7]) of the same compound?
The value was “no difference in the antiviral activity”.

And the “antiviral activity” value (HIV)?
Its value is “low nanomolar range”.

And the “protection of washed cells at the highest concentrations tested” value (HIV-1Ba-L [2])?
Its value is “neither IQP-0528 or MVC completely protected the cells from infection”.

And the “antiviral activity after washing cells with medium or SP prior to challenge” value (HIV-1Ba-L [2])?
Its value is “significantly reduced”.

What about the “antiviral activity” value (HIV-1Ba-L [3]; cells washed 2 h after viral inoculation, drug not re-added) of the same compound?
The value was “only active in the low μM range”.

And the IC50 (HIV-1Ba-L [3]; read-out: JT-CCR5 Infection IC50; challenge in the presence of drug; means ± SEM)?
The IC50 was 1980 ± 850 nM.

What about the IC90 (HIV-1Ba-L [3]; read-out: JT-CCR5 Infection IC90; challenge in the presence of drug; means ± SEM) of the same compound?
Its IC90 is 54500 ± 13800 nM.
